{
  "source": "patent US20250018019A1",
  "about": "“TREATMENT OF INTERFERON DRIVEN INFLAMMATION” (The Provost, Fellows, Foundation Scholars and the other …, priority 2023, published 2025)",
  "key": {"[1]": {"system": "BMDMs", "assay": "RNA sequencing (GSEA, ORA) of BMDMs", "type": "cell-based, mouse", "details": "LPS 4 h; for ERK1/2 cascade and PI3K signalling (shared transcriptomic changes) / amino acid metabolism and transport, and autophagy transcripts: BMDMs pre-treated", "procedure": "(§1) All compounds used DMSO as a vehicle except for 4-hydroxy tamoxifen (EtOH), NAC (PBS), and AOAA for tracing experiments (Media). LPS was used at a concentration of 100 ng/ml for indicated timepoints (2, 3, 4, 6, 8, 24, 48 h). FHIN1 (10 or 20 μM), MMF (50 or 100 μM), DMF (25 μM), AOAA (5 mM), oligomycin (10 μM), CCCP (50 μM) NAC (1 mM), and IMT1 (10 μM) pre-treatments were performed for 3 h prior the addition of LPS. Cells were treated with valinomycin (10 nM) 15 mins before LPS stimulation. Anti-CD210 or IgG control (10 μg/ml) antibodies were added to cells 1 h prior to LPS stimulation. Recombinant mouse IL-10 protein (100 ng/ml) was added to cells at the same time as LPS. Cells were treated with IFN-B1 (220 ng/ml) for 3 h. Cells were treated with C-178 (1 μM) 1 h prior to LPS stimulation or transfection with 2′3′-cGAMP (1.5 μg/ml) for 4 hrs to achieve cGAS-STING activation. Cells were treated with ODN 2088 (1 μM) for 1 hr prior to LPS stimulation or transfection with CPG ODN 1826 (1.5 μg/ml) to achieve TLR9 activation. 3 different timepoints of 4-hydroxy tamoxifen (TAM) (600 nM or 2 μM) or EtOH treatment were performed-these are specified in the individual figure legends. For ‘48 h’ treatments EtOH/TAM was added on day 5 of 6 during the BMDM differentiation protocol. On day 6 they were plated with EtOH/TAM (left overnight) and treated the following day. For ‘72 h’ treatments EtOH/TAM was added on day […] of 6 during the BMDM differentiation protocol. On day 6 they were plated with EtOH/TAM (left overnight) and treated the following day. For ‘96 h’ treatments EtOH/TAM was added on day […] of 6 during the BMDM differentiation protocol. On day 6 they were plated with EtOH/TAM and treated 2 days later.\nBMDMs (3 independent mice) were treated as indicated and RNA was extracted as previously detailed. mRNA was extracted from total RNA using poly-T-oligo-attached magnetic beads. After fragmentation, the first strand cDNA was synthesized using random hexamer primers, followed by the second strand cDNA synthesis. The library was checked with Qubit and real-time PCR for quantification and bioanalyzer for size distribution detection. Quantified libraries were pooled and sequenced on the NovaSeq 6000 S4 (Illumina). Differential expression analysis of two conditions/groups was performed using counted reads and the DESeq2 R package^67. Pathway enrichment analyses were performed as indicated in quantification and statistical analysis.\nDetails of all statistical analyses performed can be found in the figure legends. Data were expressed as mean±standard error of the mean (SEM) unless stated otherwise. Representative western blots are shown. For metabolomics data, MetaboAnalyst 5.0^66 was used to analyse, perform statistics, and visualise the results. Autoscaling of features (metabolites) was used for heatmap generation. One-way ANOVA corrected for multiple comparisons by the Tukey statistical test was used and a p.adjusted<0.05 was set as the cut-off. For proteomics data, protein signal intensity was converted to a log2 scale and biological replicates were grouped by experimental condition. Protein-wise linear models combined with empirical Bayes statistics were used for the differential expression analyses. The Bioconductor package limma was used to carry out the analysis using an R based online tool^68. […] The proteomics cut-offs for analysis were a log2FC of 0.5 and a false discovery rate (FDR)<0.05, determined using t statistics. RNA seq cut-offs were set to log2FC of 1 and an FDR<0.05. Overrepresentation analysis (ORA) of significant changes were assessed using Enrichr^4 and the Bioconductor package clusterProfiler 4.0 in R (version 3.6.1). Further information on this visualisation method is available^69. Emapplots were generated using enrichplot package in R (version 3.6.1). GSEA analysis of RNAseq was performed using the Broad Institutes GSEA 4.1.070. […]"}, "[2]": {"system": "BMDMs", "assay": "LC-MS steady-state metabolomics / fumarate levels in BMDMs", "type": "cell-based, mouse", "details": "LPS 4 h; for ratios of ATP/ADP, ATP/AMP, and P-creatine/creatine: BMDMs pre-treated 3 h (FHIN1 10 or 20 μM, DMF 25 μM)", "procedure": "as §1\nBMDMs (3 independent mice) were plated at 0.5×10^6 cells/well in 12-well plates in technical triplicate per condition, treated as indicated, snap frozen and stored at −80° C. For metabolomics on cytosolic fraction, BMDMs were plated at 10×10^6 cells/10 cm dish and rapid fractionation was performed as previously reported^16. Metabolite extraction solution (MES) (methanol/acetonitrile/water, 50:30:20 v/v/v) was added (0.5 mL per 1×10^6 cells) and samples were incubated for 15 min on dry ice. The resulting suspension was transferred to ice-cold microcentrifuge tubes. Samples were agitated for 20 min at 4° C. in a thermomixer and then incubated at −20° C. for 1 h. Samples were centrifuged at maximum speed for 10 min at 4° C. The supernatant was transferred into a new tube and centrifuged again at maximum speed for 10 min at 4° C. The supernatant was transferred to autosampler vials and stored at −80° C. prior to analysis by LC-MS.\nHILIC chromatographic separation of metabolites was achieved using a Millipore Sequant ZIC-PHILIC analytical column (5 μm, 2.1×150 mm) equipped with a 2.1×20 mm guard column (both […] particle size) with a binary solvent system. Solvent A was 20 mM ammonium carbonate, 0.05% ammonium hydroxide; Solvent B was acetonitrile. The column oven and autosampler tray were held at 40° C. and 4° C., respectively. The chromatographic gradient was run at a flow rate of 0.200 mL/min as follows: 0-2 min: 80% B; 2-17 min: linear gradient from 80% B to 20% B; 17-17.1 min: linear gradient from 20% B to 80% B; 17.1-22.5 min: hold at 80% B. Samples were randomized and analysed with LC-MS in a blinded manner and the injection volume was 5 μl. Pooled samples were generated from an equal mixture of all individual samples and analysed interspersed at regular intervals within sample sequence as a quality control. Metabolites were measured with a Thermo Scientific Q Exactive Hybrid Quadrupole-Orbitrap Mass spectrometer (HRMS) coupled to a Dionex Ultimate 3000 UHPLC or with Vanquish Horizon UHPLC coupled to an Orbitrap Exploris 240 mass spectrometer (both Thermo Fisher Scientific) via a heated electrospray ionization source. […]"}},
  "note": "Structures can show the parent of a compound that is named as a salt.",
  "data": [
    {"molecule": "COC(=O)/C=C/C(=O)OC", "note": "[DMF, dimethyl fumarate]", "values": [
      {"measurement": "Fos expression (RNA seq)", "setting": "[1]; BMDMs pre-treated vs DMSO", "value": "not reduced"},
      {"measurement": "Jun expression (RNA seq)", "setting": "[1]; BMDMs pre-treated vs DMSO", "value": "reduced"},
      {"measurement": "other ISGs, such as Lcn2 (RNAseq)", "setting": "[1]; BMDMs pre-treated vs DMSO", "value": "suppressed"},
      {"measurement": "ERK1/2 cascade and PI3K signalling (shared transcriptomic changes)", "setting": "[1]", "value": "strong downregulation"},
      {"measurement": "amino acid metabolism and transport, and autophagy transcripts", "setting": "[1]", "value": "increased"},
      {"measurement": "ratios of ATP/ADP, ATP/AMP, and P-creatine/creatine", "setting": "[2]", "value": "no effect"}
    ]},
    {"molecule": "CCOC(=O)[C@@]12CCCC=C1N(Cc1ccc(-c3ccccc3)cc1)C(=O)[C@H]2CC(=O)NC", "note": "[FHIN1, Fumarate hydratase-IN-1]", "values": [
      {"measurement": "Fos expression (RNA seq)", "setting": "[1]; BMDMs pre-treated vs DMSO", "value": "not reduced"},
      {"measurement": "Ifnb1 (IFN-β) expression and several interferon-stimulated genes (Irf1, Ifih1, Rsad2, Ifit2), RNAseq", "setting": "[1]; BMDMs pre-treated vs DMSO", "value": "upregulation"},
      {"measurement": "Jun expression (RNA seq)", "setting": "[1]; BMDMs pre-treated vs DMSO", "value": "reduced"},
      {"measurement": "NRF2 and ATF4 stress response", "setting": "[1]; BMDMs pre-treated vs DMSO", "value": "activation"},
      {"measurement": "TNF-α signalling (overrepresentation analysis of RNAseq)", "setting": "[1]; BMDMs pre-treated vs DMSO", "value": "most highly upregulated pathway"},
      {"measurement": "expression of HRI stress response, amino acid metabolism and tRNA aminoacylation (GSEA)", "setting": "[1]; BMDMs pre-treated vs DMSO", "value": "Increased expression"},
      {"measurement": "expression of inflammatory pathways, including IL-1 and IL-10 signalling (GSEA)", "setting": "[1]; BMDMs pre-treated vs DMSO", "value": "decreased"},
      {"measurement": "genes associated with metabolism (GSEA)", "setting": "[1]; BMDMs pre-treated vs DMSO", "value": "suppression"},
      {"measurement": "other ISGs, such as Lcn2 (RNAseq)", "setting": "[1]; BMDMs pre-treated vs DMSO", "value": "suppressed"},
      {"measurement": "ERK1/2 cascade and PI3K signalling (shared transcriptomic changes)", "setting": "[1]", "value": "strong downregulation"},
      {"measurement": "amino acid metabolism and transport, and autophagy transcripts", "setting": "[1]", "value": "increased"},
      {"measurement": "ratios of ATP/ADP, ATP/AMP, and P-creatine/creatine", "setting": "[2]", "value": "reduced"},
      {"measurement": "GSSG/GSH ratio", "setting": "[2]; BMDMs pre-treated 3 h", "value": "unchanged"},
      {"measurement": "TCA cycle metabolites including citrate, aconitate, itaconate and succinate", "setting": "[2]; BMDMs pre-treated 3 h", "value": "alterations"},
      {"measurement": "aconitate/citrate ratio", "setting": "[2]; BMDMs pre-treated 3 h", "value": "decreased"},
      {"measurement": "fumarate and 2SC accumulation", "setting": "[2]; BMDMs pre-treated 3 h", "value": "enhanced"},
      {"measurement": "glyceraldehyde 3-phosphate (G3P)/2/3-phosphoglycerate (2/3-PG) ratio", "setting": "[2]; BMDMs pre-treated 3 h", "value": "increased"},
      {"measurement": "total glutathione", "setting": "[2]; BMDMs pre-treated 3 h", "value": "depletion"}
    ]}
  ]
}
